This note sets out measurements from ChEMBL document CHEMBL5150060 (J Med Chem, 2022).

Broadly, the Ki is a dissociation constant, usually derived from enzyme kinetics or from competition with a known ligand.

Molecules are shown by their SMILES. Calls of active or inactive are those of the source. No cut-off for these calls is given here.

The target in series [1] is T1, Histone deacetylase 8 (Homo sapiens) (UniProt Q9BY41).
T1 sequence (whole entry): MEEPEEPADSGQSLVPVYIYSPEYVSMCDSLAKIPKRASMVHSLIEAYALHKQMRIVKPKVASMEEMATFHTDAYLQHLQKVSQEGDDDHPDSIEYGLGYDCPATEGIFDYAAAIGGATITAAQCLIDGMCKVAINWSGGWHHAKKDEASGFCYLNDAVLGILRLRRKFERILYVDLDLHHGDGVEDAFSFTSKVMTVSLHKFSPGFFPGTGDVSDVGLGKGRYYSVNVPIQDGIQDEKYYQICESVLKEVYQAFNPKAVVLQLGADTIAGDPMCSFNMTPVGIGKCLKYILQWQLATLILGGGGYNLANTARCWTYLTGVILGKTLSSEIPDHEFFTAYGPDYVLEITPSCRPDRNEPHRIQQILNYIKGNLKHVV
Put plainly: Inhibition of HDAC8 in human Jurkat T cells assessed as upregulation of TBX21 expression after 6 hrs by RT-qPCR analysis. As to conditions: dose 0.1-10 µM, DDE = dose-dependent effect. The format is cell-based. For orientation: In qPCR the cycle at which signal appears reflects the starting amount.

Series [2] has as its target T1, Histone deacetylase 8 (Homo sapiens). Kind of series: Inhibition of HDAC8 in human Jurkat T cells assessed as upregulation of BCL6 expression at 10 uM after 6 to 12 hrs by RT-qPCR analysis. The note with it: time 6-12 hrs. It counts as cell-based.
Series [3] is described as follows: Toxicity in C57BL/6 mouse assessed as change in kidney weight at 5 to 10 mg/kg, ip administered 5 days per week for 2 weeks by H and E staining based assay. It counts as organism-based. The note with it: in vivo, 336 h, dose 5-10 mg/kg.
The target of series [4] is T1, Histone deacetylase 8 (Homo sapiens). Kind of series: Inhibition of HDAC8 in human Jurkat T cells assessed as upregulation of PRDM1 expression at 10 uM after 6 to 12 hrs by RT-qPCR analysis. The format is cell-based. As to conditions: time 6-12 hrs.
Series [5] is described as follows: Stability of compound in DMEM/DMSO/acetonitrile at pH 7.4 measured after 72 hrs by HPLC analysis. The format is physicochemical. The note with it: read-out: Stability.
Series [6] deals with T1, Histone deacetylase 8 (Homo sapiens). Put plainly: Inhibition of HDAC8 in human Jurkat T cells assessed as upregulation of EOMES expression after 6 hrs by RT-qPCR analysis. The note with it: dose 0.1-10 µM, DDE = dose-dependent effect. The format is cell-based.
Series [7] can be described thus: Toxicity in C57BL/6 mouse assessed as change in liver weight at 5 to 10 mg/kg, ip administered 5 days per week for 2 weeks by H and E staining based assay. As to conditions: in vivo, 336 h, dose 5-10 mg/kg. It counts as organism-based.
Series [8] concerns the target T1, Histone deacetylase 8 (Homo sapiens). Kind of series: Inhibition of HDAC8 in human Jurkat T cells assessed as upregulation of EOMES expression at 10 uM after 6 to 12 hrs by RT-qPCR analysis. The format is cell-based. As to conditions: time 6-12 hrs.
A short description of series [9]: Stability of compound in DMEM/DMSO/acetonitrile at pH 7.4 measured after 6 hrs by HPLC analysis. The format is physicochemical. As to conditions: read-out: Stability.
The nature of series [10]: Stability of compound in DMEM/DMSO/acetonitrile at pH 7.4 measured after 12 hrs by HPLC analysis. It counts as physicochemical. As to conditions: read-out: Stability.
Series [11] addresses T1, Histone deacetylase 8 (Homo sapiens). Put plainly: Inhibition of HDAC8 in human Jurkat T cells assessed as upregulation of IL-7R expression at 10 uM after 6 to 12 hrs by RT-qPCR analysis. It counts as cell-based. The note with it: time 6-12 hrs.
The target is the same in series [12]. Put plainly: Inhibition of HDAC8 in human Jurkat T cells assessed as upregulation of KLRG expression at 10 uM after 6 to 12 hrs by RT-qPCR analysis. It counts as cell-based. The note with it: time 6-12 hrs.
Series [13] in a line: Toxicity in C57BL/6 mouse assessed as change in intestine weight at 5 to 10 mg/kg, ip administered 5 days per week for 2 weeks by H and E staining based assay. The format is organism-based. The note with it: in vivo, 336 h, dose 5-10 mg/kg.
For series [14], the system named is Mus musculus. Kind of series: Immuno-modulatory activity in C57BL/6 mouse assessed as increase in IL2 expression in CD4+ cells at 10 mg/kg, ip administered 5 days per week for 2 weeks by RT-qPCR analysis. It counts as functional, organism-based.
The nature of series [15]: Stability of compound in DMEM/DMSO/acetonitrile at pH 7.4 measured after 48 hrs by HPLC analysis. It counts as physicochemical. As to conditions: read-out: Stability.
The target in series [16] is T1, Histone deacetylase 8 (Homo sapiens). Kind of series: Inhibition of HDAC8 in human Jurkat T cells assessed as upregulation of IL10 expression at 10 uM after 6 to 12 hrs by RT-qPCR analysis. It counts as cell-based. As to conditions: time 6-12 hrs.
For series [17], the target named is T2, Histone deacetylase 8 (Homo sapiens, UniProt Q9BY41).
T2 sequence (Q9BY41 whole entry): T1 sequence (whole entry)
Kind of series: Competitive inhibition of human HDAC8 using Abz-SRGGK(STFA)FFRR-NH2 (S) as substrate by Lineweaver-burk plot analysis.

Series [18] has as its system HEK293. Put plainly: Cytotoxicity against HEK293 cells assessed as reduction in cell viability at 50 uM after 24 hrs by alamar blue assay. As to conditions: human, hek293, 24 h. It counts as toxicity, cell-based.
For series [19], the target named is T1, Histone deacetylase 8 (Homo sapiens). Kind of series: Reversible binding affinity to recombinant human HDAC8 incubated for 30 mins by jump dilution method.
Series [20] shares this target. Kind of series: Inhibition of HDAC8 in human Jurkat T cells assessed as upregulation of BCL6 expression after 6 hrs by RT-qPCR analysis. The format is cell-based. As to conditions: dose 0.1-10 µM, DDE = dose-dependent effect.
For series [21] the target is unchanged. Kind of series: Inhibition of HDAC8 in human Jurkat T cells assessed as upregulation of IL10 expression after 6 hrs by RT-qPCR analysis. The note with it: dose 0.1-10 µM, DDE = dose-dependent effect. It counts as cell-based.

With `CCCCCCNNC(=O)c1ccc(-c2ccc(CNC(C)=O)cc2)cc1`, the inhibition result in [1], in [6], in series [20] and in series [21] was “Dde” each time. The inhibition entry in [2], in [4], in series [8], in series [11], in series [12] and in series [16] was “Active” in each case. The Activity result in [3], in series [7] and in [13] was “Non-Toxic” throughout. In addition, the remaining at 72 h in series [5] was 103%. Further, the remaining at 6 h in series [9] stood at 103%. For the same molecule, in series [10], the remaining at 12 h amounted to 104%. Besides, the outcome in series [14] and in series [19] was Active. In addition, the remaining at 48 h in [15] was found to be 104%. The affinity in series [17] corresponds to a Ki of 30.6 nM. Also, the Cell viability in series [18] was 121.3%.
